Test results reported in US9745328B2, “Flap modulators” (JANSSEN PHARMACEUTICA NV, priority 2013, dated 2017).
Structures can show the parent of a compound that is named as a salt.

Molecular target: human FLAP (Homo sapiens (Human), UniProt P20292)
Assay: FLAP binding assay (HTRF format)
Conditions: human FLAP wild type, Table 6 (additional runs)
Method in brief: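 Samples were run in duplicate on each of two assay plates, the results were averaged, and the signal was expressed as an HTRF ratio.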

Sequence of human FLAP (P20292 whole entry): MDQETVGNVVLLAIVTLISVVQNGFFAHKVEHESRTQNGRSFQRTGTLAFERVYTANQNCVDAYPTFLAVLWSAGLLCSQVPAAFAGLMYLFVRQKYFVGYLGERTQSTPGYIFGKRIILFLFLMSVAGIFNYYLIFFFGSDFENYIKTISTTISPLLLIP

SMILES | Ki [nM]
CC(C)(C)NS(=O)(=O)c1ccccc1-c1ccc(-c2cnc(N)c(Cl)c2)c(F)c1 [Example 451, 4′-(6-Amino-5-chloropyridin-3-yl)-N-tert-butyl-3′-fluorobiphenyl-2-sulfonamide trifluoroacetic acid salt] | 2.4
CC(C)(C)NS(=O)(=O)c1ccccc1-c1ccc(-c2cnc3[nH]cc(CO)c3c2)c(F)c1 [Example 455, N-tert-Butyl-3′-fluoro-4′-[3-(hydroxymethyl)-1H-pyrrolo[2,3-b]pyridin-5-yl]biphenyl-2-sulfonamide] | 0.7
Nc1cc(-c2ccc(-c3ccccc3S(=O)(=O)NC3(CO)CCCC3)cc2F)cc2cc[nH]c12 [Example 456, 4′-(7-Amino-1H-indol-5-yl)-3′-fluoro-N-[1-(hydroxymethyl)cyclopentyl]biphenyl-2-sulfonamide] | 2.6
CNS(=O)(=O)c1ccccc1-c1ccc(-c2cnc3[nH]cc(CO)c3c2)c(F)c1 [Example 457, 3′-Fluoro-4′-[3-(hydroxymethyl)-1H-pyrrolo[2,3-b]pyridin-5-yl]-N-methylbiphenyl-2-sulfonamide] | 2.7
CC(C)(C)NS(=O)(=O)c1ccccc1-c1ccc(-c2cc(N)c3[nH]ccc3c2)c(F)c1 [Example 458, 4′-(7-Amino-1H-indol-5-yl)-N-tert-butyl-3′-fluorobiphenyl-2-sulfonamide] | 4.2
CC(C)(C)NS(=O)(=O)c1ccccc1-c1ccc(-c2cnc(N)cn2)c(F)c1F [Example 462, 4′-(5-Aminopyrazin-2-yl)-N-tert-butyl-2′,3′-difluorobipnenyl-2-sulfonamide] | 2.3
Nc1cnc(-c2ccc(-c3ccccc3S(N)(=O)=O)c(F)c2F)cn1 [Example 464, 4′-(5-Aminopyrazin-2-yl)-2′,3′-difluorobiphenyl-2-sulfonamide] | 121
CC(C)(C)NS(=O)(=O)c1ccccc1-c1ccc(-c2cnc(N)nc2)c(F)c1F [Example 466, 4′-(2-Aminopyrimidin-5-yl)-N-tert-butyl-2′,3′-difluorobipenyl-2-sulfonamide trifluoroacetic acid salt] | ~254
Nc1cnc(-c2ccc(-c3ccc(OC(F)(F)F)cc3F)cc2F)cn1 [Example 467, 5-[2′,3-Difluoro-4′-(trifluoromethoxy)biphenyl-4-yl]pyrazin-2-amine] | 53.5
Nc1cnc(-c2ccc(-c3ccccc3F)cc2F)cn1 [Example 468, 5-(2′,3-Difluorobiphenyl-4-yl)pyrazin-2-amine] | 332
Nc1cnc(-c2ccc(-c3ccccc3Cl)cc2F)cn1 [Example 469, 5-(2′-Chloro-3-fluorobiphenyl-4-yl)pyrazin-2-amine] | 179
Cc1ccccc1-c1ccc(-c2cnc(N)cn2)c(F)c1 [Example 470, 5-(3-Fluoro-2′-methylbiphenyl-4-yl)pyrazin-2-amine] | 397
Nc1cnc(-c2ccc(-c3ccc(C(F)(F)F)cc3F)cc2F)cn1 [Example 471, 5-[2′,3-Difiuoro-4′-(trifluoromethyl)biphenyl-4-yl]pyrazin-2-amine] | 55.8
Nc1cnc(-c2ccc(-c3ccccc3C(F)(F)F)cc2F)cn1 [Example 472, 5-[3-Fluoro-2′-(trifluoromethyl)biphenyl-4-yl]pyrazin-2-amine] | 136
COc1ccccc1-c1ccc(-c2cnc(N)cn2)c(F)c1 [Example 473, 5-(3-Fluoro-2′-methoxybiphenyl-4-yl)pyrazin-2-amine] | 73
Nc1cnc(-c2ccc(-c3ccccc3NS(=O)(=O)c3ccccc3)cc2F)cn1 [Example 479, N-[4′-(5-Aminopyrazin-2-yl)-3′-fluorobiphenyl-2-yl]benzenesulfonamide] | 7.7
Nc1cnc(-c2ccc(-c3ccccc3OCC(=O)O)cc2F)cn1 [Example 481, {[4′-(5-Aminopyrazin-2-yl)-3′-fluorobiphenyl-2-yl]oxy}acetic acid] | 1910
CC(=O)c1ccccc1-c1ccc(-c2cnc(N)cn2)c(F)c1 [Example 483, 1-[4′-(5-Aminopyrazin-2-yl)-3′-fluorobiphenyl-2-yl]ethanone] | ~354
CS(=O)(=O)c1cc(F)ccc1-c1ccc(-c2cnc3[nH]ccc3n2)c(F)c1 [Example 489, 2-[3,4′-Difluoro-2′-(methylsulfonyl)biphenyl-4-yl]-5H-pyrrolo[2,3-b]pyrazine] | 19.6
CC(C)(C)NC(=O)c1ccccc1-c1ccc(-c2cnc(N)cn2)c(F)c1 [Example 501, 4′-(5-Aminopyrazin-2-yl)-N-tert-butyl-3′-fluorobiphenyl-2-carboxamide] | 359
Nc1cnc(-c2ccc(-c3ccc(C(F)(F)F)cc3C(=O)N3CCOCC3)cc2F)cn1 [Example 521, 5-[3-Fluoro-2′-(morpholin-4-ylcarbonyl)-4′-(trifluoromethyl)biphenyl-4-yl]pyrazin-2-amine] | 5.4
Nc1nccc(Oc2ccccc2-c2ccc(-c3cnc4[nH]ccc4c3)c(F)c2)n1 [Example 523, 4-{[3′-Fluoro-4′-(1H-pyrrolo[2,3-b]pyridin-5-yl)biphenyl-2-yl]oxy}pyrimidin-2-amine] | 1.3

SMILES | Ki [nM]
Nc1ccnc(Oc2ccccc2-c2ccc(-c3cnc4[nH]ccc4c3)c(F)c2)n1 [Example 524, 2-{[3′-Fluoro-4′-(1H-pyrrolo[2,3-b]pyridin-5-yl)biphenyl-2-yl]oxy}pyrimidin-4-amine] | 0.7
Nc1cnc(-c2ccc(-c3ccccc3Oc3ncccn3)cc2F)cn1 [Example 526, 5-[3-Fluoro-2′-(pyrimidin-2-yloxy)biphenyl-4-yl]pyrazin-2-amine] | 8.3
Nc1cnc(-c2ccc(-c3ccccc3Oc3nccc(N)n3)cc2F)cn1 [Example 528, 2-{[4′-(5-Aminopyrazin-2-yl)-3′-fluorobiphenyl-2-yl]oxy}pyrimidin-4-amine] | 5.5
N#Cc1cccnc1COc1ccccc1-c1ccc(-c2cnc(N)cn2)c(F)c1 [Example 531, 2-({[4′-(5-Aminopyrazin-2-yl)-3′-fluorobiphenyl-2-yl]oxy}methyl)pyridine-3-carbonitrile] | 8.5
Nc1cnc(-c2ccc(-c3ccccc3Oc3ccnc(N)n3)cc2F)cn1 [Example 533, 4-{[4′-(5-Aminopyrazin-2-yl)-3′-fluorobiphenyl-2-yl]oxy}pyrimidin-2-amine] | 4.5
N#Cc1cc(Oc2ccccc2-c2ccc(-c3cnc(N)nc3)c(F)c2)ccn1 [Example 538, 4-{[4′-(2-Aminopyrimidin-5-yl)-3′-fluorobiphenyl-2-yl]oxy}pyridine-2-carbonitrile] | 20.2
Nc1cnc(-c2ccc(-c3ccccc3Oc3cc(N4CCC4)ncn3)cc2F)cn1 [Example 539, 5-{2′-[(6-Azetidin-1-ylpyrimidin-4-yl)oxy]-3-fluorobiphenyl-4-yl}pyrazin-2-amine] | 1.6
COc1cnc(Oc2ccccc2-c2ccc(-c3cnc(N)nc3)c(F)c2)nc1 [Example 550, 5-{3-Fluoro-2′-[(5-methoxypyrimidin-2-yl)oxy]biphenyl-4-yl}pyrimidin-2-amine] | 1.7
Nc1cnc(-c2ccc(-c3ccc(C(F)(F)F)cc3Oc3ncccn3)cc2F)cn1 [Example 551, 5-[3-Fluoro-2′-(pyrimidin-2-yloxy)-4′-(trifluoromethyl)biphenyl-4-yl]pyrazin-2-amine] | 0.4
Nc1ncc(-c2ccc(-c3ccc(C(F)(F)F)cc3Oc3ncccn3)cc2F)cn1 [Example 552, 5-[3-Fluoro-2′-(pyrimidin-2-yloxy)-4′-(trifluoromethyl)biphenyl-4-yl]pyrimidin-2-amine] | 5.5
COc1cc(C(F)(F)F)ccc1-c1ccc(-c2cnc(N)cn2)c(F)c1 [Example 553, 5-[3-fluoro-2′-methoxy-4′-(trifluoromethyl)biphenyl-4-yl]pyrazin-2-amine] | 19.3
Nc1cnc(-c2ccc(-c3ccc(C(F)(F)F)cc3Oc3ccnc(N)n3)cc2F)cn1 [Example 555, 4-{[4′-(5-Aminopyrazin-2-yl)-3′-fluoro-4-(trifluoromethyl)biphenyl-2-yl]oxy}pyrimidin-2-amine] | 1.6
Nc1cnc(-c2ccc(-c3ccc(C(F)(F)F)cc3Oc3nccc(N)n3)cc2F)cn1 [Example 556, 2-{[4′-(5-Aminopyrazin-2-yl)-3′-fluoro-4-(trifluoromethyl)biphenyl-2-yl]oxy}pyrimidin-4-amine] | 0.7
Nc1ccnc(Oc2cc(C(F)(F)F)ccc2-c2ccc(-c3cnc(N)nc3)c(F)c2)n1 [Example 559, 5-{2′-[(4-Aminopyrimidin-2-yl)oxy]-3-fluoro-4′-(trifluoromethyl)biphenyl-4-yl}pyrimidin-2-amine] | 1.5
Nc1cc(Oc2cc(C(F)(F)F)ccc2-c2ccc(-c3cnc(N)nc3)c(F)c2)ncn1 [Example 561, 5-{2′-[(6-Aminopyrimidin-4-yl)oxy]-3-fluoro-4′-(trifluoromethyl)biphenyl-4-yl}pyrimidin-2-amine] | 4.4
CC(C)(C)NS(=O)(=O)c1ccccc1-c1ccc(-c2cnc(N)cn2)cc1 [Example 571, 4′-(5-Aminopyrazin-2-yl)-N-tert-butylbiphenyl-2-sulfonamide] | 1.7
CC(C)(C)NS(=O)(=O)c1ccccc1-c1ccc(-c2cnc(N)cn2)cc1F [Example 574, 4′-(5-Aminopyrazin-2-yl)-N-tert-butyl-2′-fluorobiphenyl-sultonamide] | 13.9
Nc1nc(-c2ccc(-c3ccccc3S(=O)(=O)N3CCCC3)cc2F)cs1 [Example 579, 4-[3-Fluoro-2′-(pyrrolidin-1-ylsulfonyl)biphenyl-4-yl]-1,3-thiazol-2-amine] | 95.1
CC(C)(C)NS(=O)(=O)c1ccccc1-c1ccc(-c2ccc3[nH]nc(N)c3c2)c(F)c1 [Example 597, 4′-(3-Amino-1H-indazol-5-yl)-N-tert-butyl-3′-fluorobiphenyl-2-sulfonamide] | ~2500
Nc1cnc(Oc2ccccc2-c2ccc(-c3cnc(N)cn3)c(F)c2)nc1 [Example 614, 2-{[4′-(5-Aminopyrazin-2-yl)-3′-fluorobiphenyl-2-yl]oxy}pyrimidin-5-amine] | 9.8
Nc1cnc(Oc2ccccc2-c2ccc(-c3cnc(N)nc3)c(F)c2)nc1 [Example 615, 5-{2′-[(5-Aminopyrimidin-2-yl)oxy]-3-fluorobiphenyl-4-yl}pyrimidin-2-amine] | 50.9

Same assay, conditions: human FLAP wild type, a calculated value of 0.000 indicates Ki less than 1 nM

SMILES | Ki [nM]
Nc1cnc(-c2ccc(-c3ccc(C(F)(F)F)cc3Oc3ncccn3)cc2F)cn1 [Example 551, 5-[3-Fluoro-2′-(pyrimidin-2-yloxy)-4′-(trifluoromethyl)biphenyl-4-yl]pyrazin-2-amine] | < 1
